Read-outs that look alike come from different tables or passages of the source.
Columns and labels:
COLO 205 [1] = assay: cells; details: Homo sapiens
SF-295 [2] = system: SF-295
HCT-15 [3] = assay: cells; details: Homo sapiens
NCI-H226 [4] = assay: cells; details: Homo sapiens
SF-295 [5] = assay: cells; details: Homo sapiens
COLO 205 [6] = system: COLO 205
HT29 = assay: cells; details: Homo sapiens
NCI-H226 [7] = system: NCI-H226
SF-539 = assay: cells; details: Homo sapiens
HCT-15 [8] = system: HCT-15
NCI/ADR-RES = details: NCI/ADR-RES
UACC-62 = assay: cells; details: Homo sapiens
BT-549 = assay: cells; details: Homo sapiens
OVCAR-4 = assay: cells; details: Homo sapiens
HCC-2998 = assay: cells; details: Homo sapiens
788-0 [9] = assay: cells; details: Homo sapiens, 786-0
788-0 [10] = details: 786-0
NCI-H522 = assay: cells; details: Homo sapiens
SF-268 = assay: cells; details: Homo sapiens
CAKI-1 = assay: cells; details: Homo sapiens
DU-145 = assay: cells; details: Homo sapiens

SMILES: CNC(=O)NC[C@H]1O[C@@H](n2cnc3c(NC(=O)Nc4ccccc4)ncnc32)[C@H](O[Si](C)(C)C(C)(C)C)[C@@H]1CC(=O)N(C)OC [Compound 13, 2′-O-(tert-Butyldimethylsilyl)-3′,5′-dideoxy-3′-[(N-methoxy-N-methylcarboxamido)methyl]-5′-[(N-methylcarbamoyl)amino]-N^6-(N-phenylcarbamoyl)adenosine]
- TGI (OVCAR-3): >1.00E−4 Molar
- Percent Growth (OVCAR-3; Log10 Concentration −4.0): 6%
- Percent Growth (OVCAR-3; Log10 Concentration −5.0): 41%
- Percent Growth (OVCAR-3; Log10 Concentration −6.0): 100%
- Percent Growth (OVCAR-3; Log10 Concentration −7.0): 107%
- Percent Growth (OVCAR-3; Log10 Concentration −8.0): 95%
- GI50 (COLO 205 [1]; COLO 205): 12.3 µM
- CC50 (COLO 205 [1]; COLO 205, read-out: LC50): > 100 µM
- TGI (SF-295 [2]): >1.00E−4 Molar
- Percent Growth (SF-295 [2]; Log10 Concentration −4.0): 20%
- Percent Growth (SF-295 [2]; Log10 Concentration −5.0): 48%
- Percent Growth (SF-295 [2]; Log10 Concentration −6.0): 98%
- Percent Growth (SF-295 [2]; Log10 Concentration −7.0): 93%
- Percent Growth (SF-295 [2]; Log10 Concentration −8.0): 93%
- GI50 (HCT-15 [3]; HCT-15): 6.47 µM
- CC50 (HCT-15 [3]; HCT-15, read-out: LC50): > 100 µM
- GI50 (NCI-H226 [4]; NCI-H226): 41.9 µM
- CC50 (NCI-H226 [4]; NCI-H226, read-out: LC50): > 100 µM
- GI50 (SF-295 [5]; SF-295): 9.09 µM
- CC50 (SF-295 [5]; SF-295, read-out: LC50): > 100 µM
- TGI (IGROV1): 6.57E−5 Molar
- Percent Growth (IGROV1; Log10 Concentration −4.0): −6%
- Percent Growth (IGROV1; Log10 Concentration −5.0): 26%
- Percent Growth (IGROV1; Log10 Concentration −6.0): 82%
- Percent Growth (IGROV1; Log10 Concentration −7.0): 89%
- Percent Growth (IGROV1; Log10 Concentration −8.0): 89%
- TGI (COLO 205 [6]): >1.00E−4 Molar
- Percent Growth (COLO 205 [6]; Log10 Concentration −4.0): 1%
- Percent Growth (COLO 205 [6]; Log10 Concentration −5.0): 55%
- Percent Growth (COLO 205 [6]; Log10 Concentration −6.0): 90%
- Percent Growth (COLO 205 [6]; Log10 Concentration −7.0): 93%
- Percent Growth (COLO 205 [6]; Log10 Concentration −8.0): 97%
- GI50 (HT29; HT-29): 5.37 µM
- CC50 (HT29; HT-29, read-out: LC50): > 100 µM
- TGI (NCI-H460): >1.00E−4 Molar
- Percent Growth (NCI-H460; Log10 Concentration −4.0): 25%
- Percent Growth (NCI-H460; Log10 Concentration −5.0): 44%
- Percent Growth (NCI-H460; Log10 Concentration −6.0): 90%
- Percent Growth (NCI-H460; Log10 Concentration −7.0): 93%
- Percent Growth (NCI-H460; Log10 Concentration −8.0): 96%
- TGI (NCI-H226 [7]): >1.00E−4 Molar
- Percent Growth (NCI-H226 [7]; Log10 Concentration −4.0): 40%
- Percent Growth (NCI-H226 [7]; Log10 Concentration −5.0): 66%
- Percent Growth (NCI-H226 [7]; Log10 Concentration −6.0): 99%
- Percent Growth (NCI-H226 [7]; Log10 Concentration −7.0): 111%
- Percent Growth (NCI-H226 [7]; Log10 Concentration −8.0): 103%
- GI50 (SF-539; SF-539): 22.3 µM
- CC50 (SF-539; SF-539, read-out: LC50): > 100 µM
- TGI (UO-31): >1.00E−4 Molar
- Percent Growth (UO-31; Log10 Concentration −4.0): 32%
- Percent Growth (UO-31; Log10 Concentration −5.0): 46%
- Percent Growth (UO-31; Log10 Concentration −6.0): 82%
- Percent Growth (UO-31; Log10 Concentration −7.0): 89%
- Percent Growth (UO-31; Log10 Concentration −8.0): 89%
- TGI (U251): >1.00E−4 Molar
- Percent Growth (U251; Log10 Concentration −4.0): 25%
- Percent Growth (U251; Log10 Concentration −5.0): 37%
- Percent Growth (U251; Log10 Concentration −6.0): 90%
- Percent Growth (U251; Log10 Concentration −7.0): 101%
- Percent Growth (U251; Log10 Concentration −8.0): 97%
- TGI (HCT-15 [8]): >1.00E−4 Molar
- Percent Growth (HCT-15 [8]; Log10 Concentration −4.0): 37%
- Percent Growth (HCT-15 [8]; Log10 Concentration −5.0): 40%
- Percent Growth (HCT-15 [8]; Log10 Concentration −6.0): 93%
- Percent Growth (HCT-15 [8]; Log10 Concentration −7.0): 94%
- Percent Growth (HCT-15 [8]; Log10 Concentration −8.0): 96%
- TGI (NCI/ADR-RES): >1.00E−4 Molar
- Percent Growth (NCI/ADR-RES; Log10 Concentration −4.0): 55%
- Percent Growth (NCI/ADR-RES; Log10 Concentration −5.0): 76%
- Percent Growth (NCI/ADR-RES; Log10 Concentration −6.0): 105%
- Percent Growth (NCI/ADR-RES; Log10 Concentration −7.0): 109%
- Percent Growth (NCI/ADR-RES; Log10 Concentration −8.0): 109%
- GI50 (UACC-62; UACC-62): 41.9 µM
- CC50 (UACC-62; UACC-62, read-out: LC50): > 100 µM
- GI50 (BT-549; BT-549): 29 µM
- CC50 (BT-549; BT-549, read-out: LC50): > 100 µM
- GI50 (OVCAR-4; OVCAR-4): 53 µM
- CC50 (OVCAR-4; OVCAR-4, read-out: LC50): > 100 µM
- GI50 (HCC-2998; HCC 2998): 30.6 µM
- CC50 (HCC-2998; HCC 2998, read-out: LC50): > 100 µM
- GI50 (788-0 [9]): 9.01 µM
- TGI (LOX IMVI): >1.00E−4 Molar
- Percent Growth (LOX IMVI; Log10 Concentration −4.0): 35%
- Percent Growth (LOX IMVI; Log10 Concentration −5.0): 43%
- Percent Growth (LOX IMVI; Log10 Concentration −6.0): 94%
- Percent Growth (LOX IMVI; Log10 Concentration −7.0): 96%
- Percent Growth (LOX IMVI; Log10 Concentration −8.0): 97%
- TGI (788-0 [10]): >1.00E−4 Molar
- Percent Growth (788-0 [10]; Log10 Concentration −4.0): 8%
- Percent Growth (788-0 [10]; Log10 Concentration −5.0): 48%
- Percent Growth (788-0 [10]; Log10 Concentration −6.0): 93%
- Percent Growth (788-0 [10]; Log10 Concentration −7.0): 92%
- Percent Growth (788-0 [10]; Log10 Concentration −8.0): 95%
- GI50 (NCI-H522; NCI-H522): 11.1 µM
- CC50 (NCI-H522; NCI-H522, read-out: LC50): > 100 µM
- GI50 (SF-268; SF-268): 8.29 µM
- CC50 (SF-268; SF-268, read-out: LC50): > 100 µM
- GI50 (CAKI-1; CAKI-1): 53.8 µM
- CC50 (CAKI-1; CAKI-1, read-out: LC50): > 100 µM
- GI50 (DU-145; DU-145): 16.6 µM
- CC50 (DU-145; DU-145, read-out: LC50): > 100 µM
